{"source": "patent US20120329813A1", "about": "(Cardoz AB, priority 2009, published 2012)", "key": {"[1]": {"system": "CRP", "details": "subjects with prediabetes and elevated serum TNF-alpha; cited from earlier work"}, "[2]": {"experiment": "Safety in the CAD patient during the two week pemirolast treatment", "type": "in vivo, human", "details": "30 mg b.i.d. for two weeks", "method": "(§1) The first dose (3×10 mg) was administered in the morning of Day 1 at the clinic, the second dose in the evening of Day 1 at home, and then 3×10 mg b.i.d. at home during Days 2 to 14. The last dose was administered in the evening of Day 14 at home.\n(§2) The CAD patient was a person with a body height of 188 cm and a body weight of 103 kg. They were on treatment with enalapril 20 mg QD (once daily) for hypertension since 2006. After a myocardial infarction in 2009, they were started on treatment with simvastatin 40 mg QD, acetylsalicylic acid 75 mg QD, and metoprolol 100 mg QD (all three drugs started in June 2009). Since January 2010, the patient was also treated with felodipin 5 mg QD. During the two week treatment with pemirolast, the patient continued to take these medications."}, "[3]": {"system": "plasma C-reactive protein (CRP)", "experiment": "Plasma CRP (hsCRP assay) in a patient with coronary artery disease treated with pemirolast potassium for two weeks", "type": "in vivo, human", "details": "CAD patient, 30 mg b.i.d., 6.4 mg/L on Day 1 before the first dose", "method": "The study was approved by the Swedish Medical Products Agency, and performed by Berzelius Clinical Research Centre AB in Linköping, Sweden (the clinic).\nPlasma CRP was determined with the high sensitivity CRP (hsCRP) assay described in Example 1 above.\nas §1, §2"}, "[4]": {"system": "plasma CRP", "experiment": "Plasma CRP (high sensitivity CRP assay) in healthy volunteers treated perorally with pemirolast potassium for five days", "type": "in vivo, human", "method": "(§3) Plasma CRP was determined with a high sensitivity CRP assay (based on Near Infrared Particle Immunoassay rate methodology) on a UniCel DxC 800 instrument from Beckman Coulter (analysis performed at the Department of Clinical Chemistry, Karolinska University Laboratory, Stockholm, Sweden). The degree of mast cell activity was determined by measuring plasma tryptase with the ImmunoCAP Tryptase Fluoro-Immuno-Enzymatic Assay on a ImmunoCAP 250 instrument from Phadia (analysis performed at Clinical Immunology and Transfusion Medicine, Karolinska University Laboratory, Stockholm, Sweden)."}, "[5]": {"details": "human, in vivo, po", "procedure": "During days 2-4, each subject received one dose in the morning and one dose in the evening with a time interval of 12 hours between the daily doses. […] Other than the occasional use of nasal decongestants or paracetamol, the subjects were instructed not to use other drugs, alcohol or nicotine during the study."}, "[6]": {"system": "plasma tryptase", "experiment": "Plasma tryptase (ImmunoCAP Tryptase Fluoro-Immuno-Enzymatic Assay) in healthy volunteers before and after pemirolast treatment", "type": "in vivo, human", "method": "as §3"}, "[7]": {"system": "hsCRP", "details": "patients with chronic obstructive pulmonary disease; cited from earlier work"}, "[8]": {"details": "apparently healthy subjects with normal or low LDL cholesterol and elevated CRP; 1.9 years; cited from earlier work"}}}
{"compound": "CN1CCC(=C2c3ccccc3CC(=O)c3sccc32)CC1", "note": "[ketotifen]", "values": [{"measurement": "effect on CRP", "setting": "[1]", "value": "not to reduce CRP"}]}
{"compound": "Cc1cccn2c(=O)c(-c3nnn[nH]3)cnc12", "note": "[pemirolast]", "values": [{"measurement": "adverse events", "setting": "[2]", "value": "did not report any adverse events"}, {"measurement": "CRP level", "setting": "[3]; Day 8", "value": 4.0, "unit": "mg/L"}, {"measurement": "CRP level", "setting": "[3]; morning of Day 15", "value": 1.8, "unit": "mg/L"}, {"measurement": "effect on CRP levels (FIG. 1)", "setting": "[4]; four subjects with baseline CRP >0.9 mg/L, 10, 30 or 50 mg day 1-5", "value": "markedly reduced"}, {"measurement": "mean CRP level at the end of the pemirolast treatment", "setting": "[4]; four subjects with baseline plasma CRP >0.9 mg/L, 10, 30 or 50 mg per os b.i.d. day 1-5, 1.8 mg/L before treatment, p<0.05", "value": 1.1, "unit": "mg/L"}, {"measurement": "mean CRP level at the end of the pemirolast treatment", "setting": "[4]; remaining subjects with baseline CRP below 0.9 mg/L (n=13), 0.32 mg/L before treatment", "value": 0.38, "unit": "mg/L"}, {"measurement": "AUC and Cmax versus dose", "setting": "[5]", "value": "increased in a dose-proportional manner"}, {"measurement": "effect on tryptase levels", "setting": "[6]; four subjects with SLGI, plasma CRP >0.9 mg/L", "value": "did not reduce"}, {"measurement": "mean plasma tryptase level", "setting": "[6]; four subjects with plasma CRP >0.9 mg/L, both before and after pemirolast treatment", "value": 4.8, "unit": "µg/L"}]}
{"compound": "Cn1c(=O)c2[nH]cnc2n(C)c1=O", "note": "[theophylline]", "values": [{"measurement": "effect on hsCRP", "setting": "[7]", "value": "not to reduce hsCRP"}]}
{"compound": "CC(C)c1nc(N(C)S(C)(=O)=O)nc(-c2ccc(F)cc2)c1/C=C/[C@@H](O)C[C@@H](O)CC(=O)O", "note": "[rosuvastatin]", "values": [{"measurement": "effect on cardiovascular morbidity/mortality", "setting": "[8]", "value": "significantly reduces"}]}
